According to patent US20240148717A1, “COMBINATION THERAPY FOR TREATMENT OF CONDITIONS ASSOCIATED WITH AGING” (priority 2021, published 2024):

Columns and labels:
[1] = test system: spirochetes; assay: Case study Patient A: penicillin G, then with Lycopene and Allicin, for neuro-spirochetosis; type: in vivo, human; conditions: 24 million units per day intravenously every 4 hours, after a few days
Experimental: A patient (below, “Patient A”) was hospitalized on 10 Jun. 2019 and reported the following symptoms: • Fatigue; • Rash similar to a syphilis rash Patient A experienced 6 months previous; • Blurred vision; and • Headache and impaired thinking.
Based on the above results Patient A was treated with aqueous crystalline penicillin G 24 million units per day, administered intravenously every 4 hours.
On 23 Feb. […] However, other spirochetes were present which could create systemic infection. Among these bacteria, Patient A had Brachyspira, a slow-growing anaerobic spirochete that can colonize the large intestine of animals including humans. While Brachyspira is known for causing diarrhea, it was recently discovered that it could also attack other organs. It was found in the Alzheimer's brain (Miklossy, 2011 [16]) and has been recently been associated with other human chronic conditions (Hampson, 2017 [17]). One human experimental infection was recently performed, where a volunteer drank cultures of Brachyspira isolated from an Australian Aboriginal child with diarrhea, and reported headaches, among other symptoms. (Hampson, 2017 [18]).
After a number of medical consultations, Patient A agreed to follow a non-standard protocol, extending penicillin treatment s to a 6+week course for neuro-spirochetosis. […]

[2] = test system: gray hair; assay: Case study Patient A: hydroxychloroquine and curcumin added at end of therapy, gray hair; type: in vivo, human; conditions: hydroxychloroquine 200 mg per day for one month plus curcumin 3 g per day, added at end of therapy (FIG. 7)
Description: Patient reported the following improvements—including the *very surprising* disappearance of minor symptoms they had not been aware of beforehand. A summary follows: • Eyes. Vision blur resolved almost completely. • Brain. Improved cognitive functions short-and-long-term memory (they reported faster typing). • Numbness. Some minor parts of their body that had been numb since the 2008 neuropathy, such as the tips of the toes, started to regain sensitivity. • Body. Even in a condition of little exercise while being hospitalized the patient lost about 5 kg in 2 weeks and seemed more toned and in generally better condition (FIG. 2). • Asthma. Patient A reported better breathing. […] Joints in hands started swelling, and then healing (see FIG. 5). Arthritis has been reported both with spirochetes and Chlamydia Pneumoniae infections (Steere, 1987 [19], Porritt, 2016 [20]). • Prostate. Patient A never had prostate problems. However, they reported a larger urine flow and more frequent nocturnal penile tumescence. • Skin. Lesions and sclerotic plaques on their hands, which dated back from 2008, started healing. They resembled a sub-clinical manifestation of Acrodermatitis Chronica Atrophicans, which appears in phase 3 of European borreliosis (see FIG. 3). Incidentally, the healing process highlighted a small-scale bull's eye patterns, with a white patch and a red dot at the center (FIG. 4). […]

Compound: CC1(C)S[C@@H]2[C@H](NC(=O)Cc3ccccc3)C(=O)N2[C@H]1C(=O)O [aqueous crystalline penicillin G, penicillin G]
- Effect of therapy (patient feeling better, vision improving) [1]: seemed effective

Compound: COc1cc(/C=C/C(=O)CC(=O)/C=C/c2ccc(O)c(OC)c2)ccc1O [curcumin]
- Reversal of gray hair [2]: partial reversal of gray hair

Compound: CCN(CCO)CCCC(C)Nc1ccnc2cc(Cl)ccc12 (stereo not drawn) [hydroxychloroquine]
- Reversal of gray hair [2]: partial reversal of gray hair
